Where two headings read alike, the source gives them in different places.
Columns and labels:
[1] = system: convulsions induced by AMPA; assay: Anticonvulsant action induced by AMPA; assay type: in vivo, mice of ddy strain; conditions: 25 mg/kg orally, male ddy mice; AMPA continuously injected into lateral ventricle 30 minutes or 1 hour after
Method: A test compound was suspended in a 0.5% methyl cellulose solution or in sesame oil and was orally administered (25 mg/kg) to male mice of ddy strain. After 30 minutes or 1 hour from the oral administration, AMPA was continuously injected ([…]/5 μl/minute/mouse) into lateral ventricle to induce the convulsions. The effect was judged by a time-extending action until the convulsion takes place by a continuous injection of AMPA.

[2] = system: experimental autoimmune encephalomyelitis; assay: Experimental autoimmune encephalomyelitis model; assay type: in vivo; conditions: p.o. 5, 10 and 20 mg/kg, 10-16 days post immunisation, female Lewis rats, versus vehicle
Method: Female Lewis rats (205±10 g) obtained from Charles River, Kent UK, were housed in pairs under environmentally controlled conditions (6:00 a.m.-6:00 p.m. light/dark cycle; 22-24° C.; 45-55% humidity) and allowed free access to food and water. Experimental groups consisted of 9-12 animals. Rats were immunised in each hind foot with 20-50 μl of inoculum containing 50 μg guinea pig myelin basic protein (MBP; final concentration 2 mg/ml), emulsified in Freund's complete adjuvant (CFA; Sigma, UK) containing Mycobacterium tuberculosis H37Ra (final concentration 5.5 mg/ml; Difco Laboratories, UK). Animals were weighed and monitored daily and clinical disease scored as (O) no clinical signs; (1) flaccid tail and weight loss; (2) hind limb hypotonia with further weight loss; (3) complete hind limb paralysis; (4) paraplegia and (5) death. […] During the period of compound administration (10-16 days post immunisation; dpi) animals were scored 15 h after injection of vehicle or compound to avoid any acute effect of treatment on disease score. Compounds were dissolved/suspended in 0.5% methyl cellulose using a hand held Polytron homogeniser (PT1200; 2 min). Rats were dosed p.o. with either methyl cellulose vehicle (2.5 ml/kg) or compound at 5, 10 and 20 mg/kg. Results: the compound of the invention is improved in view of experimental autoimmune encephalomyelitis.

[3] = Table 1, primary culture of rat embryo cerebral cortex nerve cells, 2 μM AMPA, 1 μM MK-801
[4] = Table 2, suppression of AMPA-induced calcium influx into nerve cells
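Wherever IC50 is given: primary rat embryonic cortical neurons grown on an astrocyte layer in 96-well plates, used after at least 8 to 10 days in culture, Fura2-AM fluorescence ratio at 340/380 nm excitation.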

Method for AMPA receptor: Cerebral cortex was cut out from the brain of rat of gestational 18 days and treated with trypsin and DNase to disperse the cells. The cells were flown by MEM containing 10% of serum, sown in a culture bottle and astrocytes were proliferated. The astrocytes were re-dispersed by trypsin and sown in a 96-well plate. After incubation for one week, it was confirmed that the astrocytes covered all over the bottom and then the nerve cells of cerebral cortex which was dispersed by the above method were sown thereupon. After incubation for 24 hours, the medium was changed, the incubation was carried out for one week and, after that, the medium was changed to that containing 1 μM of MK-801. Nerve cells which were incubated for not shorter than 8 to 10 days were used.
Calcium influx into the cells was measured using Fura2-AM which was a calcium-sensitive fluorescent dye. It was treated in a medium containing Fura2-AM for 1 hour, incorporated into the cells, exchanged to a Tyrode solution containing 1 μM MK-801 and stimulation was carried out using 2 μM AMPA. Change in the amount of calcium flown into the cells were measured as the change in the fluorescent intensity at the exciting wave length of 340/380 nm.

Compound	anticonvulsant action (time-extending action until the convulsion takes place) [1]	IC50 (AMPA receptor; [3]) [nM]	effect on experimental autoimmune encephalomyelitis (clinical disease score) [2]	IC50 (AMPA receptor; [4]) [nM]
N#Cc1ccccc1-c1cc(-c2ccccn2)cn(-c2ccc(F)cc2)c1=O [Example 91, 3-(2-Cyanophenyl)-5-(2-pyridyl)-1-(4-fluorophenyl)-1,2-dihydropyridin-2-one]	significant anticonvulsant action	50		
O=c1c(-c2ccccc2Cl)cc(-c2ccccn2)cn1-c1cccnc1 [Example 128, 3-(2-Chlorophenyl)-5-(2-pyridyl)-1-(3-pyridyl)-1,2-dihydropyridin-2-one]	significant anticonvulsant action	70		
O=c1c(-c2ccccc2)cc(-c2ccccn2)cn1-c1ccccc1 [Example 61, 3-Phenyl-5-(2-pyridyl)-1-phenyl-1,2-dihydropyridin-2-one]	significant anticonvulsant action	200		
CN(C)c1cccc(-n2cc(-c3ccccn3)cc(-c3ccccc3C#N)c2=O)c1 [Example 12, 3-(2-Cyanophenyl)-5-(2-pyridyl)-1-(3-dimethylaminophenyl)-1,2-dihydropyridin-2-one]	significant anticonvulsant action	100		
O=c1c(-c2ccccc2Cl)cc(-c2ccccn2)cn1-c1ccccc1 [Example 57, 3-(2-Chlorophenyl)-5-(2-pyridyl)-1-phenyl-1,2-dihydropyridin-2-one]	significant anticonvulsant action	200		
O=c1c(-c2cccnc2Cl)cc(-c2ccccn2)cn1-c1ccccc1 [Example 4, 3-(2-Chloro-3-pyridyl)-5-(2-pyridyl)-1-phenyl-1,2-dihydropyridin-2-one]	significant anticonvulsant action	100		
N#Cc1ccccc1-c1cc(-c2ncccn2)cn(-c2cccnc2)c1=O [Example 261, 3-(2-Cyanophenyl)-1-(3-pyridyl)-5-(2-pyrimidinyl)-1,2-dihydropyridin-2-one]	significant anticonvulsant action		superior effect to the vehicle-administered group	80
N#Cc1ccccc1-c1cc(-c2ccccn2)cn(-c2cccc(N)c2)c1=O [Example 9, 3-(2-Cyanophenyl)-5-(2-pyridyl)-1-(3-aminophenyl)-1,2-dihydropyridin-2-one]	significant anticonvulsant action	30		
N#Cc1ccccc1-c1cc(-c2cnccn2)cn(-c2ccccc2)c1=O [Example 199, 3-(2-Cyanophenyl)-1-phenyl-5-(2-pyrazyl)-1,2-dihydropyridin-2-one]	significant anticonvulsant action			700
N#Cc1ncccc1-c1cc(-c2ncccn2)cn(-c2ccccc2)c1=O [Example 264, 3-(2-Cyanopyridin-3-yl)-1-phenyl-5-(2-pyrimidinyl)-1,2-dihydropyridin-2-one]	significant anticonvulsant action		superior effect to the vehicle-administered group	50
N#Cc1ccccc1-c1cc(-c2ccccc2)cn(-c2cccnc2)c1=O [Example 47, 3-(2-Cyanophenyl)-5-phenyl-1-(3-pyridyl)-1,2-dihydropyridin-2-one]	significant anticonvulsant action	600		
N#Cc1ccccc1-c1cc(-c2ccccc2)cn(-c2ccccc2)c1=O [Example 41, 3-(2-Cyanophenyl)-1,5-diphenyl-1,2-dihydropyridin-2-one]	significant anticonvulsant action	80		
N#Cc1sccc1-c1cc(-c2ccccn2)cn(-c2cccnc2)c1=O [Example 137, 3-(2-Cyanothiophen-3-yl)-5-(2-pyridyl)-1-(3-pyridyl)-1,2-dihydropyridin-2-one]	significant anticonvulsant action			50
N#Cc1ccccc1-c1cc(-c2ncccn2)cn(-c2ccccc2)c1=O [Example 164, 3-(2-Cyanophenyl)-1-phenyl-5-(2-pyrimidinyl)-1,2-dihydropyridin-2-one]	significant anticonvulsant action		superior effect to the vehicle-administered group	80
O=c1c(-c2cccnc2F)cc(-c2ccccn2)cn1-c1cccnc1 [Example 139, 3-(2-Fluoro-3-pyridyl)-5-(2-pyridyl)-1-(3-pyridyl)-1,2-dihydropyridin-2-one]	significant anticonvulsant action		superior effect to the vehicle-administered group	300
N#Cc1ccccc1-c1cc(-c2ccccn2)cn(-c2ccccc2)c1=O [Example 7, 3-(2-Cyanophenyl)-5-(2-pyridyl)-1-phenyl-1,2-dihydropyridin-2-one]	significant anticonvulsant action	100	superior effect to the vehicle-administered group	
N#Cc1ncccc1-c1cc(-c2ccccn2)cn(-c2ccccc2)c1=O [Example 16, 3-(2-Cyano-3-pyridyl)-5-(2-pyridyl)-1-phenyl-1,2-dihydropyridin-2-one]	significant anticonvulsant action	100		
N#Cc1ccccc1-c1cc(-c2cccc(N)n2)cn(-c2ccccc2)c1=O [Example 298, 5-(2-Aminopyridin-6-yl)-3-(2-cyanophenyl)-1-phenyl-1,2-dihydropyridin-2-one]	significant anticonvulsant action			300
COc1ccccc1-n1cc(-c2ccccn2)cc(-c2ccccc2C#N)c1=O [Example 126, 3-(2-Cyanophenyl)-5-(2-pyridyl)-1-(2-methoxyphenyl)-1,2-dihydropyridin-2-one]	significant anticonvulsant action	300		
O=c1c(-c2cccnc2F)cc(-c2ccccn2)cn1-c1ccccc1 [Example 76, 3-(2-Fluoro-3-pyridyl)-5-(2-pyridyl)-1-phenyl-1,2-dihydropyridin-2-one]	significant anticonvulsant action	100	superior effect to the vehicle-administered group	
N#Cc1cccc(-c2cc(-c3ccccn3)cn(-c3ccccc3)c2=O)n1 [Example 78, 3-(6-Cyano-2-pyridyl)-5-(2-pyridyl)-1-phenyl-1,2-dihydropyridin-2-one]	significant anticonvulsant action	1400		
O=c1c(-c2cccnc2F)cc(-c2ncccn2)cn1-c1ccccc1 [Example 262, 3-(2-Fuluoropyridin-3-yl)-1-phenyl-5-(2-pyrimidinyl)-1,2-dihydropyridin-2-one]	significant anticonvulsant action		superior effect to the vehicle-administered group	300
N#Cc1ccccc1-c1cc(-c2ccccn2)cn(-c2cccnc2)c1=O [Example 32, 3-(2-Cyanophenyl)-5-(2-pyridyl)-1-(3-pyridyl)-1,2-dihydropyridin-2-one]	significant anticonvulsant action	100	superior effect to the vehicle-administered group	
O=c1c(-c2ccccc2[N+](=O)[O-])cc(-c2ccccn2)cn1-c1ccccc1 [Example 270, 3-(2-Nitrophenyl)-1-phenyl-5-(2-pyridyl)-1,2-dihydropyridin-2-one]	significant anticonvulsant action			140
CC(=O)c1cccc(-n2cc(-c3ccccn3)cc(-c3ccccc3C#N)c2=O)c1 [Example 277, 1-(3-Acetylphenyl)-3-(2-cyanophenyl)-5-(2-pyridyl)-1,2-dihydropyridin-2-one]				600
